Measured values taken from patent EP4818156A1, “SQUARIC ACID COMPOUND, PHARMACEUTICALLY ACCEPTABLE SALT OR DEUTERATED COMPOUND THEREOF, PREPARATION METHOD THEREFOR AND USE THEREOF” (Shanghai Institute of Materia Medica, Chinese Academy of …, priority 2023, dated 2025).

Assay: Photostability under continuous 808 nm laser irradiation
Type: physicochemical
Settings: aqueous solution, 808 nm laser at 108 mW/cm^2, 20 minutes
Description: Indocyanine green (ICG), an FDA-approved near-infrared dye widely used clinically, was used as a control to evaluate the photostability of compound Ia (SQ 905). ICG was dissolved in water, and compound Ia (SQ 905) was dissolved in methanol. Over a period of 25 minutes, the methanol solution of compound Ia and the aqueous solution of ICG were continuously irradiated with an 808 nm laser at 108 mW/cm^2. During this period, the fluorescence intensity was recorded using a near-infrared II camera (MARS, Artemis Intelligent Imaging, Shanghai, China). Images were recorded every minute for the first 15 minutes, and every 5 minutes thereafter to monitor the fluorescence intensity. The fluorescence intensity of the region of interest (ROI) in the captured images was quantified using ImageJ software and compared with the initial fluorescence intensity to obtain the ratio of fluorescence intensity at each time point relative to the initial intensity. The photostability curve of compound Ia was plotted using GraphPad Prism 8.0.2 software.
Accordingly, the photostability of compound Ia was evaluated in this example. The methanol solution of compound Ia and the aqueous solution of ICG were used for photostability testing.

CC1(C)C(/C=C/C=C/C=C/C=C2\N(CCCCS(=O)(=O)O)c3ccc4ccccc4c3C2(C)C)=[N+](CCCCS(=O)(=O)[O-])c2ccc3ccccc3c21 [ICG, Indocyanine green]
decrease of fluorescence intensity after continuous irradiation: 83%
